Laboratory results as given in US11174248B2, “Indazolyl-spiro[2.3]hexane-carbonitrile derivatives as LRRK2 inhibitors, pharmaceutical compositions, and uses thereof” (Merck Sharp & Dohme Corp., priority 2017, dated 2021).

Biological target: GST-tagged truncated human mutant G2019S LRRK2 (Homo sapiens (Human), UniProt Q5S007, G2019S)
Experiment: LRRK2 Km ATP LanthaScreen Assay
Format: biochemical
Details: 134 μM ATP (Km ATP); fluorescein-labeled LRRKtide substrate; mean IC50 values
Method: Unless otherwise noted, all LRRK2 IC50 data presented in tables refers to the LRRK2 Km ATP LanthaScreen™ Assay that is described in the Biological Assay section.
Biological Assay: LRRK2 Km ATP LanthaScreen™ Assay
The LRRK2 kinase activity reported herein as IC50 values was determined with LanthaScreen™ technology from Life Technologies Corporation (Carlsbad, Calif.) using GST-tagged truncated human mutant G2019S LRRK2 in the presence of the fluorescein-labeled peptide substrate LRRKtide, also from Life Technologies. The data presented for the Km ATP LanthaScreen™ Assay represents mean IC50 values based on several test results and may have reasonable deviations depending on the specific conditions and reagents used. Assays were performed in the presence of 134 μM ATP (Km ATP). Upon completion, the assay was stopped and phosphorylated substrate detected with a terbium (Tb)-labeled anti-pERM antibody (cat. no. PV4898). The compound dose response was prepared by diluting a 10 mM stock of compound to a maximum concentration of 9.99 μM in 100% dimethylsulfoxide followed by custom fold serial dilution in dimethylsulfoxide nine times. Twenty nanoliters of each dilution was spotted via a Labcyte Echo onto a 384-well black-sided plate (Corning 3575) followed by 15 μl of a 1.25 nM enzyme solution in 1× assay buffer (50 mM Tris pH 8.5, 10 mM MgCl2, 0.01% Brij-35, 1 mM EGTA, 2 mM dithiothreitol, 0.05 mM sodium orthovanadate) Following a 15-minute incubation at room temperature, the kinase reaction was started with the addition of 5 μl of 400 nM fluorescein-labeled LRRKtide peptide substrate and 134 μM ATP solution in 1× assay buffer. The reaction was allowed to progress at ambient temperature for 90 minutes. The reaction was then stopped by the addition of 20 μl of TR-FRET Dilution Buffer (Life Technologies, Carlsbad, Calif.) containing 2 nM Tb-labeled anti-phospho LRRKtide antibody and 10 mM EDTA (Life Technologies, Carlsbad, Calif.). After an incubation of 1 hour at room temperature, the plate was read on an EnVision multimode plate reader (Perkin Elmer, Waltham, Mass.) with an excitation wavelength of 337 nm (Laser) and a reading emission at both 520 and 495 nm. Compound IC50s were interpolated from nonlinear regression best fits of the log of the final compound concentration, plotted as a function of the 520/495-nm emission ratio using Activity base. Abase uses a 4 parameter (4P) logistic fit based on the Levenberg-Marquardt algorithm.

GST-tagged truncated human mutant G2019S LRRK2, sequence (Q5S007 970-2527 G2019S): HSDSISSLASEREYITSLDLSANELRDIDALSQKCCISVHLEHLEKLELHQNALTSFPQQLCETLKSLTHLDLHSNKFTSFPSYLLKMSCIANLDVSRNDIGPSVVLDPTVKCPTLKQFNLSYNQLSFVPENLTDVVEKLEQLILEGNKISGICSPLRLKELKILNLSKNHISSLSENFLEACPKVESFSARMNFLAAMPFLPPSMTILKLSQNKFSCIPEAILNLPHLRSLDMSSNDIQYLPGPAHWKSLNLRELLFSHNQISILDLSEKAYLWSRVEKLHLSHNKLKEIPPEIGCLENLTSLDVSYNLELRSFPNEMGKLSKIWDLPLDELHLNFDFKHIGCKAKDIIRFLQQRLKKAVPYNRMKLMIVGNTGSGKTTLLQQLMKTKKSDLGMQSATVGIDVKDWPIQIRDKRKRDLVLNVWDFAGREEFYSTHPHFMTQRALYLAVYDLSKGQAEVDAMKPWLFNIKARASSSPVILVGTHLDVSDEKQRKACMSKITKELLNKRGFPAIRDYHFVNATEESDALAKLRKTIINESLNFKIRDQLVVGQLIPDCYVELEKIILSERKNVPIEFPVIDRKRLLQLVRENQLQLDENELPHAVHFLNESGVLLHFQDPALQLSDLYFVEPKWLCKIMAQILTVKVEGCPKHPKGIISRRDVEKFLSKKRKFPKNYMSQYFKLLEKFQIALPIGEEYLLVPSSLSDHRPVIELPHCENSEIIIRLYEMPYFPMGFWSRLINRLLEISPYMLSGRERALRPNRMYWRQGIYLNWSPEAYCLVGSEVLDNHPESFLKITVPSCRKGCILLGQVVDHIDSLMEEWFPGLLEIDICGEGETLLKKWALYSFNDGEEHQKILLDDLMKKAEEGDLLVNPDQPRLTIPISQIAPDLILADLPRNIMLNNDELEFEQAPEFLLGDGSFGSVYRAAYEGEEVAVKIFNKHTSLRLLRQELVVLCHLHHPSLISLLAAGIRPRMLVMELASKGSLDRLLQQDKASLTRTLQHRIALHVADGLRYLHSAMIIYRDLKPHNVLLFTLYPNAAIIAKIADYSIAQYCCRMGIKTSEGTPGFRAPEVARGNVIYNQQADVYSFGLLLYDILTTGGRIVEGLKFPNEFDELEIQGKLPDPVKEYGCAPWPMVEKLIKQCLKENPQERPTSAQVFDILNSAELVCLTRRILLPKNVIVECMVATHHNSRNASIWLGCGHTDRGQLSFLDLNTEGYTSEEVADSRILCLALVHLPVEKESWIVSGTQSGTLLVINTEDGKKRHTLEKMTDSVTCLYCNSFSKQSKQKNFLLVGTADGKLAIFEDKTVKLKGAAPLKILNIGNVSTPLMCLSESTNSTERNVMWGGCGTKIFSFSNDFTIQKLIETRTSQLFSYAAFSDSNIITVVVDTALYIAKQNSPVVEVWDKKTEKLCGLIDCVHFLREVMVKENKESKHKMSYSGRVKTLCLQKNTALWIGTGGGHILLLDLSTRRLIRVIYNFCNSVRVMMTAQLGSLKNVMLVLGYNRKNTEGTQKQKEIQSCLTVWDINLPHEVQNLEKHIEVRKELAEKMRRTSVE

Compound: N#CC1(c2cc3c(cn2)cnn3-c2cc(N3CCN4CCOC[C@@H]4C3)ncn2)CC2(CC2)C1 [Example 49, (S)-5-(1-(6-(hexahydropyrazino[2,1-c][1,4]oxazin-8(1H)-yl)pyrimidin-4-yl)-1H-pyrazolo[4,3-c]pyridin-6-yl)spiro[2.3]hexane-5-carbonitrile]
- IC50: 8.8 nM
